Reference: publication PMC8994207 (Journal of medicinal chemistry, 2021)
pEC50: −log10 of the molar value. Entries after “also recorded” stand apart in the source; their conditions may differ. Where two headings read alike, the source gives them in different places. Blank lines part the entries; values can stand above or below the compound they belong to.

Tests used:
OX1R = conditions: read-out: EC50 at OX1R; weak agonist of both OX receptors; cited from earlier work
[1] = cited from earlier work
OX2R = conditions: read-out: EC50 at OX2R; weak agonist of both OX receptors; cited from earlier work
rats = conditions: EEG changes, locomotor activity, startle response latency; cited from earlier work
mice = conditions: cited from earlier work
human OX1R = biological target: T1, human OX1R (Homo sapiens, UniProt O43613); experiment: OX1R calcium mobilization assay; conditions: for agonist activity at OX1R (in words): calcium mobilization
T1 sequence (O43613 1-425): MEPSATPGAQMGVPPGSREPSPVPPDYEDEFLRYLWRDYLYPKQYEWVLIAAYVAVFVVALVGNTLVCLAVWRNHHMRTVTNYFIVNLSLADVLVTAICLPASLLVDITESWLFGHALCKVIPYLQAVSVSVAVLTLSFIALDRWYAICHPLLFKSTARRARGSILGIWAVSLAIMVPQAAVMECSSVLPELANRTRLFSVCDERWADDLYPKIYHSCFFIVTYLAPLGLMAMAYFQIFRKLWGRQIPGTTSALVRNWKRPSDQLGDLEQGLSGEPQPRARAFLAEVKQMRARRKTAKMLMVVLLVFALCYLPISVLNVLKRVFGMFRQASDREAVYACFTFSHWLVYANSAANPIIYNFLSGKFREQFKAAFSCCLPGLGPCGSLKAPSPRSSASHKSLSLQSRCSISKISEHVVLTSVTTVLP

human OX2R = biological target: T2, human OX2R (Homo sapiens, UniProt O43614); experiment: OX2R calcium mobilization assay; conditions: for agonist activity at OX2R (in words): calcium mobilization
T2 sequence (O43614 1-444): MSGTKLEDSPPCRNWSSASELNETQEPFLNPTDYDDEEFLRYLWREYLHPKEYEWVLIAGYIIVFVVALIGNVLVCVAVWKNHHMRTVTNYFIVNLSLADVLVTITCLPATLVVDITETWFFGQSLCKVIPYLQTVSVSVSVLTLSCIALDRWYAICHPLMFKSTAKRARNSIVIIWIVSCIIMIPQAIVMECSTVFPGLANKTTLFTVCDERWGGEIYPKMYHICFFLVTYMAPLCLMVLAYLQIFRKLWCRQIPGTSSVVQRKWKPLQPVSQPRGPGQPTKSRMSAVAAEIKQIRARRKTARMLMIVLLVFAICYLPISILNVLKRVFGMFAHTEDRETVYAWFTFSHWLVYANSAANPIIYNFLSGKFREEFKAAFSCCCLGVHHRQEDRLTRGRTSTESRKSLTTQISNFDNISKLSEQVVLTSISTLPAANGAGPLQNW

12-month old mice = experiment: Sleep modulation study, continuous EEG/EMG recordings; assay type: in vivo
[2] = i.c.v. 30, 100, 300 nmol, light phase, up to 3 h post injection
[3] = i.p. 40 and 60 mg/kg, 6 h into the light phase, up to 3 h, mice
[4] = 40 mg/kg i.p., 4 h post-injection, vs saline
[5] = 40 mg/kg i.p., lights-on phase, 12-month old mice, 0-4 h post-injection, vs vehicle
[6] = i.p. injection, 12-month old mice

Structure (SMILES): Cc1ccc(Cn2c(=N)n(CC(O)c3ccc(Cl)c(Cl)c3)c3ccccc32)cc1 (stereo not shown) [compound 1]
pEC50 (OX1R): < 5.49
cytotoxicity [1]: OX receptor independent cytotoxicity
pEC50 (OX2R): < 5.49

Structure (SMILES): COc1ccc(-c2cccc(C(=O)N(C)C)c2)cc1S(=O)(=O)Nc1cccc(NCCNC(=O)c2ccccc2N(C)C)c1 [compound 2, 3’-(N-(3-((2-(2-(dimethylamino)benzamido)ethyl)amino)phenyl)sulfamoyl)-4’-methoxy-N,-N-dimethyl-[1,1’-biphenyl]-3-carboxamide]
morphine-induced sedative effects (rats): attenuated
percent time in NREM sleep (mice; [2]): decreased
time in wakefulness (mice; [2]): increased
sleep/wake parameters (mice; i.p. 20 mg/kg): did not have any effect
percent time in NREM sleep (mice; i.p. 40 mg/kg, mice): reduced
percent time in REM sleep (mice; [3]): decreased
percent time in wakefulness (mice; [3]): increased
wake time (mice; i.p. 40 or 60 mg/kg): increased
direct transitions from wakefulness to REM sleep (mice; i.p. 40 or 60 mg/kg, for 3 hours): decreased
cataplexy-like episodes (mice; orexin knock-out and orexin neuron-ablated mice): suppressed
wakefulness (mice; wild-type mice, i.c.v. 30–300 nmol and/or i.p. 40 mg/kg, hydrochloride salt): promoted wakefulness

Structure (SMILES): CCCNC(=O)c1cccc(-c2ccc(OC)c(S(=O)(=O)Nc3cccc(NCCNC(=O)c4ccccc4N(C)C)c3)c2)c1 [compound 9, 3’-(N-(3-((2-(2-(dimethylamino)benzamido)ethyl)amino)phenyl)sulfamoyl)-4’-methoxy-N-p-ropyl-[1,1’-biphenyl]-3-carboxamide]
agonist activity at OX1R (in words) (human OX1R): no activity

Structure (SMILES): COc1ccc(-c2cccc(CN(C)C)c2)cc1S(=O)(=O)Nc1cccc(NCCNC(=O)c2ccccc2N(C)C)c1 [compound 10, 2-(Dimethylamino)-N-(2-((3-((3’-((dimethylamino)methyl)-4-methoxy-[1,1’-biphenyl])-3-sulfonamido)phenyl)amino)ethyl)benzamide]
agonist activity at OX1R (in words) (human OX1R): no activity

Structure (SMILES): COc1ccc(-c2cccc(C(=O)N(C)C)c2)cc1S(=O)(=O)Nc1cccc(N2CCN(C(=O)c3ccccc3N(C)C)CC2)c1 [compound 22, 3’-(N-(3-(4-(2-(dimethylamino)benzoyl)piperazin-1-yl)phenyl)sulfamoyl)-4’-methoxy-N,N-dimethyl-[1,1’-biphenyl]-3-carboxamide]
agonist activity at OX1R (in words) (human OX1R): all activities were lost
agonist activity at OX2R (in words) (human OX2R): all activities were lost

Structure (SMILES): COc1ccc(-c2cccc(C(=O)N(C)C)c2)cc1S(=O)(=O)Nc1cccc(N2CCN(C(=O)c3cccc(C)c3)CC2)c1 [compound 23, 4’-Methoxy-N,N-dimethyl-3’-(N-(3-(4-(3-methylbenzoyl)piperazin-1-yl)phenyl)sulfamoyl)-[1,1’-biphenyl]-3-carboxamide]
agonist activity at OX1R (in words) (human OX1R): all activities were lost
agonist activity at OX2R (in words) (human OX2R): all activities were lost

Structure (SMILES): COc1ccc(/C=C/C(=O)N(C)C)cc1S(=O)(=O)Nc1cccc(NCCNC(=O)c2cccc(C)c2)c1 [compound 31, (E)-N-(2-((3-((5-(3-(dimethylamino)-3-oxoprop-1-en-1-yl)-2-methoxyphenyl)sulfonamido)-phenyl)amino)ethyl)-3-methylbenzamide]
agonist activity at OX1R (in words) (human OX1R): inactive
agonist activity at OX2R (in words) (human OX2R): inactive

Structure (SMILES): COc1ccc(CCC(=O)N(C)C)cc1S(=O)(=O)Nc1cccc(NCCNC(=O)c2cccc(C)c2)c1 [compound 32, N-(2-((3-((5-(3-(dimethylamino)-3-oxopropyl)-2-methoxyphenyl)sulfonamido)phenyl)amin-o)ethyl)-3-methylbenzamide]
agonist activity at OX1R (in words) (human OX1R): inactive
agonist activity at OX2R (in words) (human OX2R): inactive

Structure (SMILES): COc1ccc(-c2cccc(C(=O)N(C)C)c2)cc1C(=O)Nc1cccc(NCCNC(=O)c2cccc(C)c2)c1 [compound 43, 4-Methoxy-N^3’,N^3’-dimethyl-N^3-(3-((2-(3-methylbenzamido)ethyl)amino)phenyl)-[1,1’-biph-enyl]-3,3’-dicarboxamide]
agonist activity at OX1R (in words) (human OX1R): total loss of activity

Structure (SMILES): COc1ccc(-c2cccc(C(=O)N(C)Cc3ccncc3)c2)cc1C(=O)Nc1cccc(NCCNC(=O)c2cccc(C)c2)c1 [compound 44, 4-Methoxy-N^3’-methyl-N^3-(3-((2-(3-methylbenzamido)ethyl)amino)phenyl)-N^3’-(pyridin-4-ylmethyl)-[1,1’-biphenyl]-3,3’-dicarboxamide]
agonist activity at OX1R (in words) (human OX1R): total loss of activity

Now from value to compound, other results behind:

agonist activity at OX1R (in words) (human OX1R): full agonist
Structure (SMILES): COc1ccc(-c2cccc(C(=O)N(C)C)n2)cc1S(=O)(=O)Nc1cccc(NCCNC(=O)c2cccc(C)c2)c1 [compound 27, 6-(4-methoxy-3-(N-(3-((2-(3-methylbenzamido)ethyl)amino)phenyl)sulfamoyl)phenyl)-N,N-dimethylpicolinamide]

agonist activity at OX1R (in words) (human OX1R): complete loss of potency
Structure (SMILES): COc1ccc(-c2cccc(C(=O)NCCN(C)C)c2)cc1S(=O)(=O)Nc1cccc(NCCNC(=O)c2cccc(C)c2)c1 [compound 34, N-(2-(dimethylamino)ethyl)-4’-methoxy-3’-(N-(3-((2-(3-methylbenzamido)ethyl)amino)phenyl)sulfamoyl)-[1,1’-biphenyl]-3-carboxamide]

agonist activity at OX1R (in words) (human OX1R): no activity
Structure (SMILES): COc1ccc(-c2cccc(C(=O)N(C)Cc3ccccc3)c2)cc1S(=O)(=O)Nc1cccc(NCCNC(=O)c2cccc(C)c2)c1 [compound 36, N-Benzyl-4’-methoxy-N-methyl-3’-(N-(3-((2-(3-methylbenzamido)ethyl)amino)phenyl)sulfa-moyl)-[1,1’-biphenyl]-3-carboxamide]

agonist activity at OX1R (in words) (human OX1R): complete loss of the OX1R potency
Structure (SMILES): COc1ccc(-c2cccc(C(=O)NCc3ccccn3)c2)cc1S(=O)(=O)Nc1cccc(NCCNC(=O)c2cccc(C)c2)c1 [compound 38, 4’-Methoxy-3’-(N-(3-((2-(3-methylbenzamido)ethyl)amino)phenyl)sulfamoyl)-N-(pyridin-2-ylmethyl)-[1,1’-biphenyl]-3-carboxamide]

agonist activity at OX1R (in words) (human OX1R): full agonist
Emax (human OX1R; read-out: Emax at OX1R): ~100%
agonist activity at OX2R (in words) (human OX2R): full agonist
Emax (human OX2R; read-out: Emax at OX2R): ~100%
Structure (SMILES): COc1ccc(-c2cccc(C(=O)N(C)Cc3ccncc3)c2)cc1S(=O)(=O)Nc1cccc(NCCNC(=O)c2cccc(C)c2)c1 [compound 40, 4’-Methoxy-N-methyl-3’-(N-(3-((2-(3-methylbenzamido)ethyl)amino)phenyl)sulfamoyl)-N-(pyridin-4-ylmethyl)-[1,1’-biphenyl]-3-carboxamide]
duration of NREM sleep episodes (12-month old mice; [4]): increased
duration of REM sleep episodes (12-month old mice; [4]): did not affect; also recorded: without effecting
duration of wake episodes (12-month old mice; [4]): increased
number of NREM sleep episodes (12-month old mice; [4]): Reduced
number of REM sleep episodes (12-month old mice; [4]): fewer episodes; also recorded: reduced
number of state transitions (12-month old mice; [4]): reduced
number of wake episodes (12-month old mice; [4]): reduced
time spent in NREM sleep (12-month old mice; [5]): reduced; also recorded: decreased
time spent in REM sleep (12-month old mice; [5]): reduced; also recorded: decreased
time spent in wakefulness (12-month old mice; 40 mg/kg i.p., quiet lights-on phase, 12-month old mice, 0-4 h post-injection, vs vehicle): significantly increased
sleep/wake consolidation (12-month old mice; [6]): increased; also recorded: improved
time asleep (12-month old mice; [6]): decreased
